Here are results for 4 compounds from patent EP4745137A1 (Gluetacs Therapeutics (Shanghai) Co., Ltd., priority 2023, dated 2025).

Assay [1] deals with T1, IKZF1 (Homo sapiens, UniProt Q13422+Q96SW2).
T1 construct: endogenous in cells; host or cells: hPBMCs (Milecell Biotechnologies)
Description: Western-blot assay of substrate protein degradation in hPBMCs, IKZF1. The format is cell-based. Particulars: 24 hours of compound treatment, compounds tested at 50 nM and 500 nM (concentration of the table not stated).

The target of assay [2] is T2, WEE1 (Homo sapiens, UniProt P30291+Q96SW2).
T2 construct: endogenous in cells; host or cells: hPBMCs (Milecell Biotechnologies)
Description: Western-blot assay of substrate protein degradation in hPBMCs, WEE1. As to conditions: 24 hours of compound treatment, compounds tested at 50 nM and 500 nM (concentration of the table not stated). Format: cell-based.

The subject of assay [3] is Jurkat. Put plainly: Tumor cell proliferation inhibition (CellTiter-Meiluncell Luminescent Cell Viability Assay), Jurkat. Particulars: Homo sapiens, read-out: inhibitory activity (IC50, nM) against tumor cells proliferation, Jurkat.
In assay [4] the target is T3, IKZF2 (Homo sapiens, UniProt Q96SW2+Q9UKS7).
T3 construct: endogenous in cells; host or cells: hPBMCs (Milecell Biotechnologies)
T3 sequence (Q9UKS7 whole entry): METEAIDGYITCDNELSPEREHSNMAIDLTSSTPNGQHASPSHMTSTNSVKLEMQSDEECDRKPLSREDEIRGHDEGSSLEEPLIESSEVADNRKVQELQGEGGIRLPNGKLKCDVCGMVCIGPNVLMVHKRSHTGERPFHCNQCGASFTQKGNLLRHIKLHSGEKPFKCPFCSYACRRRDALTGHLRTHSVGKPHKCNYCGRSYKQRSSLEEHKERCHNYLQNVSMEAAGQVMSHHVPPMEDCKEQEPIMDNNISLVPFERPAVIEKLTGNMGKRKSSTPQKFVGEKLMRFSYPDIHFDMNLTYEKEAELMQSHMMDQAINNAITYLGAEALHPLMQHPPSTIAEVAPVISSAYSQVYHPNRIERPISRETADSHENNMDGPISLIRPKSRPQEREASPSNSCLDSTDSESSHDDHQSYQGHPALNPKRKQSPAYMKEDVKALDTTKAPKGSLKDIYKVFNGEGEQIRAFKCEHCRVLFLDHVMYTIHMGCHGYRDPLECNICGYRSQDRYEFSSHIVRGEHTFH
T3 sequence (Q96SW2 whole entry): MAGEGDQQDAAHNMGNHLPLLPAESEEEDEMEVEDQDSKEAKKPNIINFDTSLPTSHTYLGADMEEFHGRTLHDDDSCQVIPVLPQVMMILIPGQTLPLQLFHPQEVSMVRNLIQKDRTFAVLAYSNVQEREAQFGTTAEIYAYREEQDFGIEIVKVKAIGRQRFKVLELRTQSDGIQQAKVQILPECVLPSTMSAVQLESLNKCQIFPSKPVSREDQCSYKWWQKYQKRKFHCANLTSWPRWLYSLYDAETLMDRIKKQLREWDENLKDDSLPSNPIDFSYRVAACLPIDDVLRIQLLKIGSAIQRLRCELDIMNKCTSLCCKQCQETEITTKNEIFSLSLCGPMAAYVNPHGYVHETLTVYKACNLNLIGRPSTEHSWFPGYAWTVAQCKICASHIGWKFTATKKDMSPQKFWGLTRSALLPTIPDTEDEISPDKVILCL
T3 sequence (Q16531 whole entry partner): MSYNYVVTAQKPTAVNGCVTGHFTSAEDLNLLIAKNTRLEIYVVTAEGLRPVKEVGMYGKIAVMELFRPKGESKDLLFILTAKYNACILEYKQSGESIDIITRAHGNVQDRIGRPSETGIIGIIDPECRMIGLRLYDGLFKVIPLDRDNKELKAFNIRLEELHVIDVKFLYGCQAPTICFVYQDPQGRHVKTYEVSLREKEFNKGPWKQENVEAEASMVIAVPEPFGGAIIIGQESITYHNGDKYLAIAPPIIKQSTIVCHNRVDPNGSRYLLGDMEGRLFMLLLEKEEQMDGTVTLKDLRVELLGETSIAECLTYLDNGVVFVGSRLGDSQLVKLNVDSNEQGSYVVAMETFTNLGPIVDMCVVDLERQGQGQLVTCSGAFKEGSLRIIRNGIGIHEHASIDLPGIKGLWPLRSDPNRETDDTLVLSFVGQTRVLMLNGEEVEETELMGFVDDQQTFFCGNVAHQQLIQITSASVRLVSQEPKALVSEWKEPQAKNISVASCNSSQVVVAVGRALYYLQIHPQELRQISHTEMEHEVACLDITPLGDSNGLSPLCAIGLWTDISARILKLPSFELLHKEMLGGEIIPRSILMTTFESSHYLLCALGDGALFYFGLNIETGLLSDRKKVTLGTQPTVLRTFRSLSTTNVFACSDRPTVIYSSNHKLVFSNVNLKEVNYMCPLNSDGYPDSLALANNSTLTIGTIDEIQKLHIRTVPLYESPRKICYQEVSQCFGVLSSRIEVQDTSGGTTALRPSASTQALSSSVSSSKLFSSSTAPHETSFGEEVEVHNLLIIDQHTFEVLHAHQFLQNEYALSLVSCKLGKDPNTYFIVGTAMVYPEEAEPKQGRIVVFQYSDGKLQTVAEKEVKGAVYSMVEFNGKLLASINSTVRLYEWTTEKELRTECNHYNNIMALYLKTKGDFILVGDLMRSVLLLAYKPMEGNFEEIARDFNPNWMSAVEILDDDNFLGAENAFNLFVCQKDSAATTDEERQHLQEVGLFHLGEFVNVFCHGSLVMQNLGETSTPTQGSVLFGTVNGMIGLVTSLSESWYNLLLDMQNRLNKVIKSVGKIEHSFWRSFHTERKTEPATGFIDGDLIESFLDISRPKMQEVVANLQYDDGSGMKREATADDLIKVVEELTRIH
Put plainly: Western-blot assay of substrate protein degradation in hPBMCs, IKZF2. As to conditions: 24 hours of compound treatment, compounds tested at 50 nM and 500 nM (concentration of the table not stated). The format is cell-based.

Assay [5] deals with NCI-H1975. Description: Tumor cell proliferation inhibition (CellTiter-Meiluncell Luminescent Cell Viability Assay), NCI-H1975. Particulars: Homo sapiens, NCI-H1975, read-out: inhibitory activity (IC50, nM) against tumor cells proliferation, H1975.
Assay [6] has as its target T4, GSPT1 (Homo sapiens, UniProt P15170+Q96SW2).
T4 construct: endogenous in cells; host or cells: hPBMCs (Milecell Biotechnologies)
Description: Western-blot assay of substrate protein degradation in hPBMCs, GSPT1. Particulars: 24 hours of compound treatment, compounds tested at 50 nM and 500 nM (concentration of the table not stated). The format is cell-based.

Assay [7] concerns the target T5, human Cereblon WT GST-tagged protein (Homo sapiens, UniProt Q96SW2).
T5 construct: purchased CISBIO 64BDCRBNPEH
Description: CRBN-binding affinity by HTRF (CEREBLON BINDING kit). Particulars: HTRF inhibitory activity, CEREBLON BINDING kit; read-out: HTRF IC50. Background: In TR-FRET formats the signal depends on donor and acceptor labels being close together.

Assay [8] addresses T6, CK1α (Homo sapiens, UniProt P48729+Q96SW2).
T6 construct: endogenous in cells; host or cells: hPBMCs (Milecell Biotechnologies)
Put plainly: Western-blot assay of substrate protein degradation in hPBMCs, CK1α. The format is cell-based. Particulars: 24 hours of compound treatment, compounds tested at 50 nM and 500 nM (concentration of the table not stated).

Assay [9] deals with T7, IKZF3 (Homo sapiens, UniProt Q96SW2+Q9UKT9).
T7 construct: endogenous in cells; host or cells: hPBMCs (Milecell Biotechnologies)
T7 sequence (Q9UKT9 whole entry): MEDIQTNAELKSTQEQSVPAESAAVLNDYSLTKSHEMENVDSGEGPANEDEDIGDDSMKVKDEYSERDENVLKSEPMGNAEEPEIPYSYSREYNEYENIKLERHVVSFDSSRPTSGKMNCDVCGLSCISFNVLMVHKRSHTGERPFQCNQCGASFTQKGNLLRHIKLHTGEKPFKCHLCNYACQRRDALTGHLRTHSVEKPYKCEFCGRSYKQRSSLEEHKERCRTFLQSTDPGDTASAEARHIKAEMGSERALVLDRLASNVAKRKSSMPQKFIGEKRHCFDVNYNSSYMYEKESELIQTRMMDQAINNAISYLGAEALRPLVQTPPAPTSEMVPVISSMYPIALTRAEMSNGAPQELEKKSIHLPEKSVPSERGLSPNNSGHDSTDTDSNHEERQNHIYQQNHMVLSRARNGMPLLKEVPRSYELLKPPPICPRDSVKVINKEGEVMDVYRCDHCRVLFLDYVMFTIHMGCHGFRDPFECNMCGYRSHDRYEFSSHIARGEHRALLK
T7 sequence (Q96SW2 whole entry): as the sequence (Q96SW2 whole entry) above
T7 sequence (Q16531 whole entry partner): as the sequence (Q16531 whole entry partner) above
Put plainly: Western-blot assay of substrate protein degradation in hPBMCs, IKZF3. Particulars: 24 hours of compound treatment, compounds tested at 50 nM and 500 nM (concentration of the table not stated). The format is cell-based.

In assay [10] the test system is MM.1S. Put plainly: Tumor cell proliferation inhibition (CellTiter-Meiluncell Luminescent Cell Viability Assay), MM.1S. As to conditions: Homo sapiens, MM1.S, read-out: inhibitory activity (IC50, nM) against tumor cells proliferation, MM.1S.
The subject of assay [11] is TMD8. Description: Tumor cell proliferation inhibition (CellTiter-Meiluncell Luminescent Cell Viability Assay), TMD8. Particulars: Homo sapiens, TMD8, read-out: inhibitory activity (IC50, nM) against tumor cells proliferation, TMD8.

T6 sequence (P48729 whole entry): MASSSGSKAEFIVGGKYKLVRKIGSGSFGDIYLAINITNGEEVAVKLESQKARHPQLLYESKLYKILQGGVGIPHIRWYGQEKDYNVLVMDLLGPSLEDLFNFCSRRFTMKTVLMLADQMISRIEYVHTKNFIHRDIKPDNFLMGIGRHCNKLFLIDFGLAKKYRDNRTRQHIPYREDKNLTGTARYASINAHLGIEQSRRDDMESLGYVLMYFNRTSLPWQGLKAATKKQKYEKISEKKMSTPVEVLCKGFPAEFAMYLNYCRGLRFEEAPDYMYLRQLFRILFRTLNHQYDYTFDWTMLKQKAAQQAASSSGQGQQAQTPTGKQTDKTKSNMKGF
T6 sequence (Q96SW2 whole entry): as the sequence (Q96SW2 whole entry) above
T6 sequence (Q16531 whole entry partner): as the sequence (Q16531 whole entry partner) above
T1 sequence (Q13422 whole entry): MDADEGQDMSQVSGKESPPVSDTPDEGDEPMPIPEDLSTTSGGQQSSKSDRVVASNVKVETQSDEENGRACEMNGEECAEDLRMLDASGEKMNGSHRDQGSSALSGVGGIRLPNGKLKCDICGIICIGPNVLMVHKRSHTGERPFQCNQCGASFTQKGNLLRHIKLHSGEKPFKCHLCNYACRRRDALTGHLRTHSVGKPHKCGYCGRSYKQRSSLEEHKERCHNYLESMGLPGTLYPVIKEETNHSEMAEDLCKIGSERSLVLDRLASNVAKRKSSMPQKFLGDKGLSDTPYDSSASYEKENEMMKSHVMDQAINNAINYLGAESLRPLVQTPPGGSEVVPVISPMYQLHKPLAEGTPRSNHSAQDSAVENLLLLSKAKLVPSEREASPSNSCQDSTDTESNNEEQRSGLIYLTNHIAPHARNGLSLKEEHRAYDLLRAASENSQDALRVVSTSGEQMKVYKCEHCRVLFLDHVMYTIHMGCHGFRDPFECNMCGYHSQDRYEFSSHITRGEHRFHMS
T1 sequence (Q96SW2 whole entry): as the sequence (Q96SW2 whole entry) above
T1 sequence (Q16531 whole entry partner): as the sequence (Q16531 whole entry partner) above
T5 sequence (Q96SW2 whole entry): as the sequence (Q96SW2 whole entry) above
T4 sequence (P15170 whole entry): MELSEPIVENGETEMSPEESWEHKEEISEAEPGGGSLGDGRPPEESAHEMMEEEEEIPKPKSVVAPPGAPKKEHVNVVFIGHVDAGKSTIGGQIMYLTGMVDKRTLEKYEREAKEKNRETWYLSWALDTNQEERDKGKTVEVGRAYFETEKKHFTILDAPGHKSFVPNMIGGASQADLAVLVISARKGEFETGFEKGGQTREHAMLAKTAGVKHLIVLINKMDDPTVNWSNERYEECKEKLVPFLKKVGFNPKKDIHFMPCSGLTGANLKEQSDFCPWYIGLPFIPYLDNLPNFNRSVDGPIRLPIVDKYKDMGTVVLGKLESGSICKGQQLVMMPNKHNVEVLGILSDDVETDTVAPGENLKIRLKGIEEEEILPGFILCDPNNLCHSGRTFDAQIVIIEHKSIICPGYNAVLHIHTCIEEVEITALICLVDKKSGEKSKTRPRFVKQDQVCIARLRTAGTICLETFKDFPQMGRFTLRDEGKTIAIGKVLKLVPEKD
T4 sequence (Q96SW2 whole entry): as the sequence (Q96SW2 whole entry) above
T4 sequence (Q16531 whole entry partner): as the sequence (Q16531 whole entry partner) above

Consider `O=C1CCC(N2Cc3cc(CN4CCC(c5noc6ccccc56)CC4)ccc3C2=O)C(=O)N1` (stereo not shown) [GT-04907, 3-(5-((4-(benzo[d]isoxazol-3-yl)piperidin-1-yl)methyl)-1-oxoisoindolin-2-yl)piperidine-2,6-dione], for which, in [1], the “IKZF 1 substrate protein remaining %” value is “A (0% ≤ substrate protein remaining % ≤ 80%)”. Besides, in [2], the “Weel substrate protein remaining %” value was “A (0% ≤ substrate protein remaining % ≤ 80%)”. The IC50 was 50 to 100 nM in assay [3], 50 to 100 nM in assay [5], less than 0.5 µM in assay [7] and 1 to 5 nM in [10]. Besides, in assay [4], the “IKZF2 substrate protein remaining %” value is recorded as “A (0% ≤ substrate protein remaining % ≤ 80%)”. Moreover, the “GSPT1 substrate protein remaining %” value in assay [6] is “A (0% ≤ substrate protein remaining % ≤ 80%)”. Moreover, in assay [8], the “CK1a substrate protein remaining %” value is on record as “B (80%< substrate protein remaining %≤ 100%)”. The “IKZF3 substrate protein remaining %” value in [9] is “A (0% ≤ substrate protein remaining % ≤ 80%)”.

For the compound `O=C1CCC(N2Cc3cc(CN4CCN(c5n[nH]c6cc(F)ccc56)CC4)ccc3C2=O)C(=O)N1` (stereo not shown) [GT-05264, 3-(5-((4-(6-fluoro-1H-indazol-3-yl)piperazin-1-yl)methyl)-1-oxoisoindolin-2-yl)piperidine-2,6-dione], the IC50 is 10 to 50 nM in assay [11], 0.5 to 1 µM in [7] and 1 to 5 nM in assay [10]. In addition, the “IKZF 1 substrate protein remaining %” value in assay [1] is “A (0% ≤ substrate protein remaining % ≤ 80%)”. The “Weel substrate protein remaining %” value in assay [2] is “A (0% ≤ substrate protein remaining % ≤ 80%)”. Also, the “IKZF2 substrate protein remaining %” value in [4] was “A (0% ≤ substrate protein remaining % ≤ 80%)”. In addition, in assay [6], the “GSPT1 substrate protein remaining %” value is recorded as “A (0% ≤ substrate protein remaining % ≤ 80%)”. In addition, the “CK1a substrate protein remaining %” value in [8] is reported as “A (0% ≤ substrate protein remaining % ≤ 80%)”. In addition, in [9], the “IKZF3 substrate protein remaining %” value is recorded as “A (0% ≤ substrate protein remaining % ≤ 80%)”.

In the case of `O=C1CCC(N2Cc3cc(CN4CC=C(c5ncnc6sc7c(c56)CCCC7)CC4)ccc3C2=O)C(=O)N1` (stereo not shown) [GT-05266, 3-(1-oxo-5-((4-(5,6,7,8-tetrahydrobenzo[4,5]thieno[2,3-d]pyrimidin-4-yl)-3,6-dihydropyridin-1(2H)-yl)methyl)isoindolin-2-yl)piperidine-2,6-dione], the IC50 in [11] is 10 to 50 nM; in assay [7], less than 0.5 µM; in assay [10] it was 5 to 10 nM. For the same compound, the “IKZF 1 substrate protein remaining %” value in assay [1] is listed as “A (0% ≤ substrate protein remaining % ≤ 80%)”. Besides, the “Weel substrate protein remaining %” value in assay [2] is “A (0% ≤ substrate protein remaining % ≤ 80%)”. The “IKZF2 substrate protein remaining %” value in [4] is “A (0% ≤ substrate protein remaining % ≤ 80%)”. The “GSPT1 substrate protein remaining %” value in [6] was “A (0% ≤ substrate protein remaining % ≤ 80%)”. Also, the “CK1a substrate protein remaining %” value in [8] was “A (0% ≤ substrate protein remaining % ≤ 80%)”. For the same compound, in assay [9], the “IKZF3 substrate protein remaining %” value is on record as “A (0% ≤ substrate protein remaining % ≤ 80%)”.

Consider `O=C1CCC(N2Cc3cc(CN4CCN(c5nc(N6CCCCC6)nc6c5SCC6)CC4)ccc3C2=O)C(=O)N1` (stereo not shown) [GT-05380, 3-(1-oxo-5-((4-(2-(piperidin-1-yl)-6,7-dihydrothieno[3,2-d]pyrimidin-4-yl)piperazin-1-yl)methyl)isoindolin-2-yl)piperidine-2,6-dione], for which the IC50 in [11] fell in the range of 10 to 50 nM; in [7], 0.5 to 1 µM; in [10] it was 1 to 5 nM. In [1], the “IKZF 1 substrate protein remaining %” value was “A (0% ≤ substrate protein remaining % ≤ 80%)”. Besides, in assay [2], the “Weel substrate protein remaining %” value is on record as “A (0% ≤ substrate protein remaining % ≤ 80%)”. Also, in assay [4], the “IKZF2 substrate protein remaining %” value is “A (0% ≤ substrate protein remaining % ≤ 80%)”. In addition, the “GSPT1 substrate protein remaining %” value in assay [6] is “A (0% ≤ substrate protein remaining % ≤ 80%)”. The “CK1a substrate protein remaining %” value in assay [8] is listed as “A (0% ≤ substrate protein remaining % ≤ 80%)”. In addition, the “IKZF3 substrate protein remaining %” value in [9] is “A (0% ≤ substrate protein remaining % ≤ 80%)”.
